# Source: US12172964B2, “Tricyclic octacationic cyclophane and its use in complexation with perlene diimide dyes” (Northwestern University, priority 2020, dated 2024)
# Where “and” joins values, the source holds several entries; their conditions need not be identical. Identical values can stand only once. Marks after values point to notes of the source that are not given here.
# Key:
# [1] = Isothermal titration calorimetry (ITC); format: binding; settings: for ΔG: directly determined by ITC
# Protocol: In all ITC experiments, ExBox.4Cl and XCage.8CF3CO2 were used in titrations. Here we use ExBox^4+ and XCage^8+ for short. All of the solutions were prepared in spectroscopic grade solvents and equilibrated for 24 h at room temperature before use. All of the titrations were independently duplicated—shown below is one set of titration isotherms—and all isotherm fittings were used to calculate the average Ka and ΔH with relevant standard errors.
# Isothermal titration was performed by TA Nano Isothermal Titration Calorimeter at 25° C. A hastelloy cell was used with an active cell volume 190 μL. The stirring speed was set at 150 rpm. Receptor and substrate solutions were prepared in Milli-Q water or MeCN and allowed to equilibrate overnight if necessary. […] After subtracting the heat of dilution, the resulting data were analyzed with NanoAnalyze software using a 1:1 binding model and plotted by Origin Lab 8.6 software.
# [2] = Binding thermodynamics of ExBox.4Cl towards PDI2 in water (fluorescence titration / ITC)
# Protocol: Direct fluorescence titration experiments: […] All of the solutions were prepared in spectroscopic grade solvents and equilibrated for 24 h at room temperature before use. All of the titrations were independently duplicated—shown below is one set of titration isotherms—and all isotherm fittings were used to calculate the average Ka and ΔH with relevant standard errors. Isothermal titration was performed by TA Nano Isothermal Titration Calorimeter at 25° C. A hastelloy cell was used with an active cell volume 190 μL. The stirring speed was set at 150 rpm. Receptor and substrate solutions were prepared in Milli-Q water or MeCN and allowed to equilibrate overnight if necessary.
# [3] = Binding constants by direct and displacement fluorescence titration; settings: for ΔG / Ka Fluorescence: 25° C.; for ΔG: estimated from fluorescence titrations
# Protocol: (§1) In all experiments shown below, ExBox.4Cl and XCage.8CF3CO2 were used in titration studies. Here we use ExBox^4+ and XCage^8+ for short. All of the solutions were prepared in spectroscopic grade solvents and equilibrated for 24 h at room temperature before use. All of the studies were independently duplicated and the corresponding isotherms were fitted to calculate the average Ka or kon values with the relevant standard errors.
# Direct fluorescence titration experiments: Since the association between PDI2 and ExBox^4+ in H2O produces turn-on fluorescence, we tracked the increase of fluorescence (ex: 545 nm, em: 555 nm) of PDI2 by varying equivalents of ExBox^4+. Caffeine is not fluorescent in H2O and its association with XCage^8+ quenches the fluorescence of XCage^8+. Thus, the fluorescence quenching of XCage^8+ was tracked by the addition of Caffeine. In MeCN, the fluorescence of perylene is quenched by XCage^8+ and thus the titration was performed by tracking the fluorescence quenching of Perylene. A plot of fluorescent intensity versus receptor concentration [R]0 or substrate concentration [S]0 was fitted with a nonlinear least-squares fitting equation for 1:1 binding model to calculate the binding constant Ka using Origin Lab 8.6 software.^S14, S15
# Displacement fluorescence titration experiments in H2O: A large access of the competitor caffeine (10 mM) was pre-mixed with XCage^8+ (10 μM), and the solution was equilibrated for 30 min before titration. The substrate solution of PDI2 was injected in aliquots. For each injection, the guest displacement process was relatively slow and took about 3-10 min to reach the equilibrium as monitored by the change of fluorescence (ex: 560 nm, em: 660 nm) over time. At this excitation wavelength, PDI2⊂XCage^8+ is fluorescent; XCage^8+, PDI2 and Caffeine are nonfluorescent. The association constants were calculated by fitting the titration data with a nonlinear least-squares fitting equation for displacement binding using Origin Lab 8.6 software.^S14
# Displacement fluorescence titration experiments in MeCN: Perylene (250 μM) was premixed with XCage^8+ (5 μM) in MeCN, and the solution was equilibrated for 30 min before titration. The substrate solution of PDI2 was injected in aliquot amount. Between each injection, the change of fluorescence intensity was monitored over time until the fluorescence (ex: 550 nm, em: 660 nm) intensity reached a steady state. At this excitation wavelength, […] is fluorescent while XCage^8+ and PDI2 are nonfluorescent. The association constants were calculated by fitting the titration data with a nonlinear least-squares fitting equation for displacement binding using Origin Lab 8.6 software.^S14
# [4] = Binding kinetics of threading PDI2 into XCage.8CF3CO2, tracked by turn-on fluorescence; settings: water, second order kinetic model
# Protocol: as §1
# Equal volume of PDI2 (1 μL, 100 μM) and XCage^8+ (1 μL, 100 μM) were mixed in H2O (1 mL) and the change of fluorescence (ex: 540 nm, em: 554 nm) was monitored over time. The resulting threading kinetics profiles were fitted using a second order kinetics model by Origin Lab 8.6 software. In MeCN, the change of fluorescence over time upon the formation of PDI2⊂XCage^8+ is too small to produce a kinetics profile as a result of the similar quantum yield between PDI2⊂XCage^8+ and PDI2.
# MCF-7 cells [5] = assay: Live-cell confocal microscopy; format: cell-based, human; settings: MCF-7, 10 μM, 6 h
# Protocol: (§2) MCF-7 cells (human breast adenocarcinoma cell line) obtained from American Type Culture Collection (ATCC, Rockville, Md., USA) was utilized for cell culture experiments. MCF-7 cells were cultured in Dulbecco's Modified Eagle's Medium (DMEM) supplemented with 10% fetal bovine serum (FBS), penicillin (100 IU/mL) and streptomycin (100 μg/mL) at 37° C. in the presence of air (95%) and carbon dioxide (5%).
# (§3) MCF-7 cells (1×10^5 cells/ml, 300 μL) were plated in each well of an 8-well chamber slide (ThermoFischer Scientific) and adhered overnight. PDI2 or PDI2⊂XCage^8+ was added to each well and incubated for 6 h or 24 h. Cells were then washed with PBS, and stained with LysoTracker green (lysosome stain, 1:1000 dilution) or NucBlue™ Live ReadyProbes™ Reagent (nuclear stain, 1 drop) or Hoechst 33342 nucleic acid stain (1:2000 dilution from 10 mg/mL stock). Plated cells were imaged within a humidified chamber using a 63× oil-immersion objective on a SP5 Leica Confocal Microscope using HyD detectors and lasers or a Deltavision Core Elite with a DAPI excitation filter (381-399 nm), DAPI emission filter (em: 411-459 nm) and TRITC emission filter (em: 571-617 nm) at equivalent light levels and exposure time. Intensity of signal in cells was measured with FIJI/ImageJ software.
# MCF-7 cells [6] = assay: Live-cell widefield fluorescence imaging using energy transfer; format: cell-based, human; settings: MCF-7, 20 μM, 6 h
# Protocol: as §2, §3
# [7] = Photophysical characterization; format: physicochemical
# Protocol: Commercially available solvents and chemicals were purchased from Sigma-Aldrich and Fisher Scientific and used without further purification unless otherwise stated. Water was deionized, and micro filtered using Milli-Q water filtration station. Compounds PDI1^S1 and ExBox.4Cl^S2 were prepared using previously reported procedures. Thin layer chromatography (TLC) was performed on silica gel 60 F254 (E. Merck). Flash column chromatography was performed by Combiflash Rf 200 purification system. Reverse phase column chromatography was performed on Combiflash NEXTGEN 300+ system with SNAP ULTRA C18 cartridges which were purchased from Biotage. UV/Vis Absorption spectra were recorded in a glass cuvette using a UV-3600 Shimadzu spectrophotometer. Steady-state emission spectra were acquired in a quartz cuvette with an optical path-length of 10 mm containing the solution of interest using HORIBA Fluoromax4 spectrofluorometer, which was equipped with an integrating sphere for absolute photoluminescence quantum yield determination and time-correlated single-photon counting (TCSPC) module for emission decays. Nuclear magnetic resonance (NMR) spectra were recorded on Bruker AVANCE III 500 MHz spectrometer equipped with DCH CryoProbe, with working frequencies of 500 MHz for ^1H and 125 MHz for ^13C nuclei. […] High-resolution mass spectra were measured on an Agilent 6210 Time of Flight (TOF) LC-MS, using an ESI source, coupled with Agilent 1100 HPLC stack, using direct infusion (0.6 mL/min). Single crystal data were obtained on a Bruker Kappa APEX2 CCD diffractometer using Cu-Kα radiation. Detailed experimental procedures are provided below in the appropriate sections.
# The fluorescence quantum yield of PDI dyes were measured by using rhodamine 6G in EtOH (Φf=0.95) as standard.^S2 The concentrations of rhodamine 6G and PDI dyes were adjusted to the absorption value 0.08 at 450 nm. The fluorescence spectrum of each solution was obtained with excitation at 450 nm, and the integrated area was used in the fluorescence quantum yield calculation. The estimated error for this method^S13 is ±10%. The fluorescent life-time was measured by Horiba Fluoromax-4 fluorometer equipped with TCSPC. Samples were excited by a laser at 374 nm, and the fluorescence decay over time was monitored at 560 nm. The fluorescent decay profiles were analyzed by a DAS6 software and matched either by a single exponential decay or double exponential decay model through mathematic fittings.
# Solubility observations = format: physicochemical
smiles,measurement,setting,value
"Cn1c(=O)c2c(ncn2C)n(C)c1=O [Caffeine, reference compound]",TΔS,"[1]; H2O, 25° C.",−1.5 kcal mo1^−1
same,ΔH,"[1]; H2O, 25° C.",−8.6 kcal mo1^−1
same,ΔG,"[1]; H2O, 25° C.",−7.1^c kcal mo1^−1
c1cc2ccc1C[n+]1ccc(cc1)-c1ccc(cc1)-c1cc[n+](cc1)Cc1ccc(cc1)C[n+]1ccc(cc1)-c1ccc(cc1)-c1cc[n+](cc1)C2 [ExBox.4Cl],binding affinity,[2],2e+06 M⁻¹
same,binding enthalpy,[2],-7.4 kcal/mol
COCCOCCOCCOCCOCCOCCOCCOCCOCCOCCOCCOCCOCCOCCOCCOCCOCCOCCOCCOCCOCCOCCOCCOCCOCCOCCOCCOCCOCCOCCOCCOCCOCCOCCOCCOCCOCCOCCOCCOCCOCCOCCOCCOCCOCCN1C(=O)c2ccc3c4ccc5c6c(ccc(c7ccc(c2c37)C1=O)c64)C(=O)N(CCOCCOCCOCCOCCOCCOCCOCCOCCOCCOCCOCCOCCOCCOCCOCCOCCOCCOCCOCCOCCOCCOCCOCCOCCOCCOCCOCCOCCOCCOCCOCCOCCOCCOCCOCCOCCOCCOCCOCCOCCOCCOCCOCCOCCOC)C5=O [PDI2],ΔG,[3]; H2O,−14.8^d kcal mo1^−1
same,Ka Fluorescence,"[3]; H2O, PDI2 by displacement in presence of 1000 molar equivalents of Caffeine",7.7e+10 M⁻¹
same,ΔG,[3]; MeCN,−13.0^d kcal mo1^−1
same,TΔS,"[1]; H2O, 25° C.",0.7 kcal mo1^−1
same,ΔH,"[1]; H2O, 25° C.",−14.1 kcal mo1^−1
same,TΔS,"[1]; MeCN, 25° C.",2.8 kcal mo1^−1
same,ΔH,"[1]; MeCN, 25° C.",−10.2 kcal mo1^−1
same,binding enthalpy in water higher than in MeCN,[1]; water versus MeCN,4 kcal/mol
same,kon,[4],(4.8±1.1)×10^5 M^−1s^−1
same,fluorescence in brightfield-merged confocal images,MCF-7 cells [5],no fluorescence
same,"fluorescence signal, DAPI excitation filter (ex: 381-399 nm), TRITC emission filter (em: 571-617 nm)",MCF-7 cells [6],did not show any fluorescence signal
same,logε,[7]; H2O,4.48
same,Φf,[7]; H2O,0.04
same,λabs,[7]; H2O,497/534
same,λem,[7]; H2O,542/586/633
same,λex,[7]; H2O,461/502/529
same,τ,[7]; H2O,4.7 ns and 4.71 ns
same,fluorescence quantum yield,[7]; MeCN,66%
same,logε,[7]; MeCN,4.91
same,red shift of absorption and emission maxima of PDI2 in the presence of XCage.8CF3CO2,[7]; MeCN,23-25 nm
same,Φf,[7]; MeCN,0.66
same,λem,[7]; MeCN,529/568/617
same,λex,[7]; MeCN,452/482/518
same,τ,[7]; MeCN,4.47 ns
same,fluorescence quantum yield,[7]; water,4%
"c1cc2cccc3c4cccc5cccc(c(c1)c23)c54 [Perylene, reference compound]",Ka Fluorescence,"[3]; MeCN, PDI2 by displacement of 50 molar equivalents of Perylene",5e+06 M⁻¹
same,Ka ITC,"[1]; MeCN, 25° C.",3.6e+06 M⁻¹
same,TΔS,"[1]; MeCN, 25° C.",2.0 kcal mo1^−1
same,ΔH,"[1]; MeCN, 25° C.",−06.9 kcal mo1^−1
same,ΔG,"[1]; MeCN, 25° C.",−08.9^c kcal mo1^−1
c1cc2ccc1C[n+]1ccc(cc1)-c1cc3cc(c1)-c1cc4cc(c1)-c1cc[n+](cc1)Cc1ccc(cc1)C[n+]1ccc(cc1)-c1cc(cc(c1)-c1cc(cc(c1)-c1cc[n+](cc1)Cc1ccc(cc1)C[n+]1ccc-3cc1)-c1cc[n+](cc1)C2)-c1cc[n+](cc1)Cc1ccc(cc1)C[n+]1ccc-4cc1 [XCage.8CF3CO2],"binding constant for Perylene, times higher than that of ExBox^4+.4PF6",[3]; MeCN,about 86
same,enhancement of binding affinity towards PDI2 compared with ExBox.4Cl (factor),[3]; water,"38,000"
same,"TΔΔS, loss of binding entropy compared with ExBox.4Cl","[1]; water, guest PDI2",-0.5 kcal/mol
same,"ΔΔH, gain in binding enthalpy compared with ExBox.4Cl","[1]; water, guest PDI2",-6.7 kcal/mol
same,solubility,Solubility observations; MeCN,slightly soluble
same,solubility,Solubility observations; water and MeOH,highly soluble
same,blue fluorescence emission range,[7]; water,350-550 nm
same,fluorescence quantum yield,[7]; water,10%
